Columns and labels:
[1] = molecular target: T1, adenosine A2a receptor (Human) (Homo sapiens, UniProt P29274); test: c-AMP generating action in cell expressing adenosine A2a receptor; type: cell-based; conditions: HEK293 cell expressing human A2a; 100% = c-AMP caused by 1 μM CGS-21680; read-out: A2a Agonistic Action (EC50)
T1 construct: host or cells: HEK293
In short: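 HEK293 cells with human A2a receptor were preincubated 30 min at 37 °C with 0.1 mM IBMX and 2 U/mL adenosine deaminase. Compound was then added for 30 min and cAMP read by EIA. EC50 = concentration giving 50% of the cAMP produced by 1 μM CGS-21680.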

A1 receptor = molecular target: T2, A1 receptor (Rattus norvegicus, UniProt P25099); test: Adenosine A1 agonistic action ([35S]GTPγS binding, rat cerebral cortex cell membrane); type: biochemical, male Wistar rats; conditions: percentage to 100% of CPA 1 μM
T2 construct: cerebral cortex of male Wistar rats (Charles River Japan, Inc) was extirpated; from tissue; host or cells: cerebral cortex of male Wistar rats, cell membrane preparation
T2 sequence (P25099 1-326): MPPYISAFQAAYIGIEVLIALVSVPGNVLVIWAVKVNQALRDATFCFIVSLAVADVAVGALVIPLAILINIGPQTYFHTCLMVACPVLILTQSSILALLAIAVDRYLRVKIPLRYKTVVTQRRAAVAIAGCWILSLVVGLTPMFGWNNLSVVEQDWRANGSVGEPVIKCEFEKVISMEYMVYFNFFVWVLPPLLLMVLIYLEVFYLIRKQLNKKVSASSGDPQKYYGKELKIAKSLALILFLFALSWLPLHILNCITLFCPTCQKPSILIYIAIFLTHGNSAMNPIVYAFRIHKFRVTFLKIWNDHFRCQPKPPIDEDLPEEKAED
Protocol: (2) Adenosine A1 Agonistic Action
The test was carried out as mentioned below with reference to the method disclosed in the literature (Shryock J. C. et al., Molecular Pharmacology, (1998) 53, 886-893; Ito H. et al., European Journal of Pharmacology, (1999) 365, 309-315). That is, cerebral cortex of male Wistar rats (Charles River Japan, Inc) was extirpated, thereto Tris buffer (50 mM Tris-HCl: pH 7.4) was added, it was homogenized, and then centrifuged (1000×g, 10 min). The supernatant was taken, and centrifuged (20,000×g, 20 min). After removing off the supernatant, the precipitate was suspended in Tris buffer, and recentrifuged (20,000×g, 20 min). After removing off the supernatant, the precipitate was suspended in Tris buffer including 2 units/mL ADA (adenosine deaminase) and reserved at −80° C. until used as a liquid preparation of cell membrane for the following tests.
The above liquid preparation of cell membrane in an amount corresponding to 10 μg of cell membrane was added to Tris-buffer comprising 5 mM of MgCl2, 1 mM of EDTA, 1 mM of dithiothreitol, 100 mM of NaCl, 0.01 mM of GDP (guanosine diphosphate), 5 mg/mL of BSA and 2 units/mL of ADA and the mixture was incubated at 25° C. for 30 minutes. Additionally, [^35S]GTPγS (Guanosine 5′-[γ-thio]triphosphate) (the final concentration: 0.4 nM) and the test compound of the given concentration (which was calculated based on the final concentration of the test compound) were added to the mixture and the resulting mixture was incubated at 25° C. for 45 minutes. The reaction mixture was filtrated through a glass fiber filter (unifilter-96 GF/B, Perkin Elmer Life Sciences) to quench reaction. The filter was washed 5 times with ice-cooled Tris-buffer including 5 mM MgCl2. The radioactivity of the filter was measured with Top count NXT(Perkin Elmer Life Sciences). The nonspecific binding was shown as the binding activity of [^35S]GTPγS in the presence of 0.01 mM GTPγS.
The activity (%, A1 agonistic action) of each test compound was calculated on the basis of the test result ([^35S]GTPγS binding activity) derived with 1 μM of CPA (N^6-Cyclopentyladenosine, Sigma, code C-8031) in control which was counted as 100%.

[2] = tested on: Intraocular Pressure in Rabbit; test: Measuring test for intraocular pressure in rabbit; type: in vivo, Female New Zealand white rabbits; conditions: mean±standard error
In short: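 Female New Zealand white rabbits received 50 μL eye drops of compound in 10 mM phosphate buffer pH 7.5 (suspension if insoluble) in one eye, vehicle as control. IOP measured by pneumatonometer under topical oxybuprocaine before and 0.5–6 h after dosing; reported as ΔIOP from pre-instillation, mmHg, mean±SE.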

[3] = 0.01% ophthalmic solution, test group, 0.5 hr
[4] = 0.01% ophthalmic solution, test group, 1 hr
[5] = 0.01% ophthalmic solution, test group, 2 hr
[6] = 0.01% ophthalmic solution, test group, 3 hr
[7] = 0.01% ophthalmic solution, test group, 4 hr
[8] = 0.01% ophthalmic solution, test group, 6 hr
[9] = 0.03% ophthalmic solution, rabbit, instillation, 0.5 hr after instillation, difference from pre-instillation
[10] = 0.03% ophthalmic solution, rabbit, instillation, 1 hr after instillation, difference from pre-instillation
[11] = 0.03% ophthalmic solution, rabbit, instillation, 2 hr after instillation, difference from pre-instillation
[12] = 0.03% ophthalmic solution, rabbit, instillation, 3 hr after instillation, difference from pre-instillation
[13] = 0.03% ophthalmic solution, rabbit, instillation, 4 hr after instillation, difference from pre-instillation
[14] = 0.03% ophthalmic solution, rabbit, instillation, 6 hr after instillation, difference from pre-instillation

T1 sequence (P29274 whole entry): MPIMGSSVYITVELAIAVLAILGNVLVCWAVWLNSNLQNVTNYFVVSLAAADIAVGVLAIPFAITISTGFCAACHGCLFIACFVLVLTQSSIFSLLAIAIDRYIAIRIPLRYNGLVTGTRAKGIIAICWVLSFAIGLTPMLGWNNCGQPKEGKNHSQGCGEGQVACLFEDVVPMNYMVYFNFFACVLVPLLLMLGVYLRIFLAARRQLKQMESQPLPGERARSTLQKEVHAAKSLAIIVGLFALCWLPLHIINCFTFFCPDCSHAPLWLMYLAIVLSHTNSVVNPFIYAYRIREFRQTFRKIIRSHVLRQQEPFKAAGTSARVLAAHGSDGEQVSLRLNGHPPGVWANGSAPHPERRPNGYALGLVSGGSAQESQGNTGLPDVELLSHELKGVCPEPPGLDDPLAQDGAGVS

EC50 [1]	A1 Agonistic Action (%) (A1 receptor; test compound 10 nM)	A1 Agonistic Action (%) (A1 receptor; test compound 100 nM)	A1 Agonistic Action (%) (A1 receptor; test compound 1 μM)	Structure (SMILES)	ΔIOP (mmHg) [2, 9]	ΔIOP (mmHg) [2, 10]	ΔIOP (mmHg) [2, 11]	ΔIOP (mmHg) [2, 12]	ΔIOP (mmHg) [2, 13]	ΔIOP (mmHg) [2, 14]	other results
> 1000 nM	14%	55%	79%	N#Cc1c(N)nc(SCc2csc(-c3ccc(Cl)cc3)n2)c(C#N)c1-c1ccc(OCCO)cc1 [Comparative Compound A, reference compound]	–	–	–	–	–	–	–
14.3 nM	20%	63%	77%	CC(=O)Nc1ccc(-c2c(C#N)c(N)nc(SCc3ccccn3)c2C#N)cc1 [Comparative Compound B, reference compound]	–	–	–	–	–	–	–
7.4 nM	4%	26%	45%	CC(=O)Nc1ccc(-c2nc(SCc3cccc(CCC(=O)N4CCN(C)CC4)n3)nc(N)c2C#N)cc1 [Example 46, N-[4-(6-amino-5-cyano-2-{6-[3-(4-methylpiperazin-1-yl)-3-oxopropyl]pyridin-2-ylmethylsulfanyl}pyrimidin-4-yl)phenyl]-acetamide]	–	–	–	–	–	–	ΔIOP (mmHg) [2, 3]: −0.6 ± 0.6 mmHg; ΔIOP (mmHg) [2, 4]: −4.4 ± 0.8 mmHg; ΔIOP (mmHg) [2, 5]: −4.9 ± 0.6 mmHg; ΔIOP (mmHg) [2, 6]: −3.8 ± 0.7 mmHg; ΔIOP (mmHg) [2, 7]: −2.9 ± 0.5 mmHg; ΔIOP (mmHg) [2, 8]: −0.5 ± 0.6 mmHg
5.1 nM	8%	30%	39%	CC(=O)Nc1ccc(-c2nc(SCc3cccc(CCC(=O)N(C)CCN(C)C)n3)nc(N)c2C#N)cc1.Cl [Example 62, 3-{6-[4-(4-acetylaminophenyl)-6-amino-5-cyanopyrimidin-2-ylsulfanylmethyl]pyridin-2-yl}-N-(2-dimethylaminoethyl)-N-methylpropionamide hydrochloride]	−1.2 ± 0.7 mmHg	−4.7 ± 0.5 mmHg	−5.1 ± 0.3 mmHg	−4.9 ± 0.3 mmHg	−3.6 ± 0.3 mmHg	−1.0 ± 0.6 mmHg	–
7.6 nM	0%	14%	46%	CC(=O)Nc1ccc(-c2nc(SCc3cccc(CCC(=O)N4CCN(CCN(C(C)C)C(C)C)CC4)n3)nc(N)c2C#N)cc1.Cl [Example 76, N-{4-[6-amino-5-cyano-2-(6-{3-[4-(2-diisopropylaminoethyl)piperazin-1-yl]-3-oxopropyl}pyridin-2-ylmethylsulfanyl)pyrimidin-4-yl]phenyl}acetamide hydrochloride]	–	–	–	–	–	–	ΔIOP (mmHg) ([2]; 0.01% ophthalmic solution, rabbit, instillation, 0.5 hr after instillation, difference from pre-instillation): −3.7 ± 0.5 mmHg; ΔIOP (mmHg) ([2]; 0.01% ophthalmic solution, rabbit, instillation, 1 hr after instillation, difference from pre-instillation): −6.0 ± 0.8 mmHg; ΔIOP (mmHg) ([2]; 0.01% ophthalmic solution, rabbit, instillation, 2 hr after instillation, difference from pre-instillation): −5.7 ± 0.1 mmHg; ΔIOP (mmHg) ([2]; 0.01% ophthalmic solution, rabbit, instillation, 3 hr after instillation, difference from pre-instillation): −6.1 ± 0.3 mmHg; ΔIOP (mmHg) ([2]; 0.01% ophthalmic solution, rabbit, instillation, 4 hr after instillation, difference from pre-instillation): −5.2 ± 0.4 mmHg; ΔIOP (mmHg) ([2]; 0.01% ophthalmic solution, rabbit, instillation, 6 hr after instillation, difference from pre-instillation): −3.6 ± 0.7 mmHg
9.5 nM	2%	18%	40%	CC(=O)Nc1ccc(-c2nc(SCc3cccc(CCC(=O)N4CCN(CCN5CCCC5)CC4)n3)nc(N)c2C#N)cc1.Cl [Example 77, N-{4-[6-amino-5-cyano-2-(6-{3-oxo-3-[4-(2-pyrrolidin-1-ylethyl)piperazin-1-yl]propyl}pyridin-2-ylmethylsulfanyl)pyrimidin-4-yl]phenyl}acetamide hydrochloride]	−0.8 ± 0.5 mmHg	−5.0 ± 0.6 mmHg	−5.1 ± 0.4 mmHg	−4.4 ± 0.6 mmHg	−4.9 ± 0.7 mmHg	−3.1 ± 0.7 mmHg	–

Structure (SMILES)	EC50 [1]	A1 Agonistic Action (%) (A1 receptor; test compound 10 nM)	A1 Agonistic Action (%) (A1 receptor; test compound 100 nM)	A1 Agonistic Action (%) (A1 receptor; test compound 1 μM)	ΔIOP (mmHg) [2, 9]	ΔIOP (mmHg) [2, 10]	ΔIOP (mmHg) [2, 11]	ΔIOP (mmHg) [2, 12]	ΔIOP (mmHg) [2, 13]	ΔIOP (mmHg) [2, 14]	other results
CCN(CC)CCN1CCN(C(=O)CCc2cccc(CSc3nc(N)c(C#N)c(-c4ccc(NC(C)=O)cc4)n3)n2)CC1.Cl [Example 75, N-{4-[6-amino-5-cyano-2-(6-{3-[4-(2-diethylaminoethyl)piperazin-1-yl]-3-oxopropyl}pyridin-2-ylmethylsulfanyl)pyrimidin-4-yl]phenyl}acetamide hydrochloride]	3 nM	3%	22%	50%	–	–	–	–	–	–	ΔIOP (mmHg) [2, 3]: −0.8 ± 0.4 mmHg; ΔIOP (mmHg) [2, 4]: −5.1 ± 0.5 mmHg; ΔIOP (mmHg) [2, 5]: −5.3 ± 0.9 mmHg; ΔIOP (mmHg) [2, 6]: −4.0 ± 0.9 mmHg; ΔIOP (mmHg) [2, 7]: −4.3 ± 0.9 mmHg; ΔIOP (mmHg) [2, 8]: −1.3 ± 0.4 mmHg
CCN(CC)CCN1CCN(C(=O)CCc2cccc(CSc3nc(N)c(C#N)c(-c4ccc(NC(C)=O)cc4)n3)n2)CC1.Cl [Example 79, N-{4-[6-amino-5-cyano-2-(6-{3-[4-(2-diethylaminoethyl)piperazin-1-yl]-3-oxopropyl}pyridin-2-ylmethylsulfanyl)pyrimidin-4-yl]phenyl}acetamide hydrochloride]	8.4 nM	–	–	–	0.3 ± 0.9 mmHg	−3.9 ± 0.5 mmHg	−5.4 ± 0.7 mmHg	−5.8 ± 0.8 mmHg	−4.8 ± 0.7 mmHg	−2.8 ± 1.0 mmHg	A1 Agonistic Action (%) (A1 receptor; test compound 10 nM, hydrochloride): 0%; A1 Agonistic Action (%) (A1 receptor; test compound 100 nM, hydrochloride): 12%; A1 Agonistic Action (%) (A1 receptor; test compound 1 μM, hydrochloride): 45%
